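Cultured in 96-well plates, cells were exposed to test compound for 48 hours across five concentrations. Here, GI50 denotes the concentration required for 50% inhibition of growth.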 The source made the active and inactive calls. No stated cut-off is given here; in the data, active = GI50 up to about 1.1 µM and inactive = higher.
How the values were obtained:
Assay in all cases: NCI anticancer screen, dose series, 48 h
[1] = tested on: MOLT-4
[2] = tested on: NCI-H522
[3] = tested on: ACHN
[4] = tested on: SN12C
[5] = tested on: OVCAR-4
[6] = tested on: OVCAR-3
[7] = tested on: CAKI-1
[8] = tested on: DU-145
[9] = tested on: PC-3
[10] = tested on: SF-295
[11] = tested on: U-251
[12] = tested on: OVCAR-8
[13] = tested on: SW-620
[14] = tested on: K562
[15] = tested on: MDA-MB-231
[16] = tested on: A498
[17] = tested on: SNB-19
[18] = tested on: A549
[19] = tested on: MDA-N

| SMILES | GI50 [1] | GI50 [2] | GI50 [3] | GI50 [4] | GI50 [5] | GI50 [6] | GI50 [7] | GI50 [8] | GI50 [9] | GI50 [10] | GI50 [11] | GI50 [12] | GI50 [13] | GI50 [14] | GI50 [15] | GI50 [16] | GI50 [17] | GI50 [18] | GI50 [19] |
| --- | --- | --- | --- | --- | --- | --- | --- | --- | --- | --- | --- | --- | --- | --- | --- | --- | --- | --- | --- |
| C/C(=N\Nc1nc2ccccc2o1)c1ccncn1 | 0.0305 µM (active) | 0.0419 µM (active) | 0.0638 µM (active) | 0.225 µM (active) | 0.129 µM (active) | 0.0524 µM (active) | 0.0471 µM (active) | 1.26 µM (inactive) | 0.31 µM (active) | 0.363 µM (active) | 0.162 µM (active) | 0.0929 µM (active) | 0.0455 µM (active) | 0.0514 µM (active) | 0.169 µM (active) | 0.45 µM (active) | 0.432 µM (active) | 0.24 µM (active) | – |
| CC1CC(=O)Nc2nc3ccccc3n21 (stereo not given) | > 100 µM (inactive) | > 100 µM (inactive) | > 100 µM (inactive) | – | > 100 µM (inactive) | > 100 µM (inactive) | > 100 µM (inactive) | – | > 100 µM (inactive) | > 100 µM (inactive) | > 100 µM (inactive) | > 100 µM (inactive) | > 100 µM (inactive) | > 100 µM (inactive) | > 100 µM (inactive) | > 100 µM (inactive) | > 100 µM (inactive) | > 100 µM (inactive) | > 100 µM (inactive) |
| CC(=O)C1=C(C)NC2C=CC=CN12 (stereo not given) | > 100 µM (inactive) | > 100 µM (inactive) | > 100 µM (inactive) | > 100 µM (inactive) | > 100 µM (inactive) | > 100 µM (inactive) | > 100 µM (inactive) | – | – | > 100 µM (inactive) | > 100 µM (inactive) | > 100 µM (inactive) | > 100 µM (inactive) | > 100 µM (inactive) | – | > 100 µM (inactive) | > 100 µM (inactive) | > 100 µM (inactive) | – |
| COc1cc(C(=O)O)c(-c2cc3c(cc2C=O)OCO3)c(OC)c1OC | > 10 µM (inactive) | > 10 µM (inactive) | > 10 µM (inactive) | > 10 µM (inactive) | > 10 µM (inactive) | > 10 µM (inactive) | > 10 µM (inactive) | > 10 µM (inactive) | > 10 µM (inactive) | 4.82 µM (inactive) | > 10 µM (inactive) | > 10 µM (inactive) | > 10 µM (inactive) | > 10 µM (inactive) | > 10 µM (inactive) | – | > 10 µM (inactive) | > 10 µM (inactive) | > 10 µM (inactive) |
| COc1cc(S(=O)(=O)Nc2ccc(-c3csc(/N=C\c4cccc(Oc5ccccc5)c4)n3)cc2)ccc1Cl | 23 µM (inactive) | 26.1 µM (inactive) | 15.5 µM (inactive) | 25.1 µM (inactive) | 41.8 µM (inactive) | 31.9 µM (inactive) | 74.8 µM (inactive) | 25.5 µM (inactive) | 36.7 µM (inactive) | 47.1 µM (inactive) | – | 25.6 µM (inactive) | 40.3 µM (inactive) | 22.6 µM (inactive) | – | – | 8.85 µM (inactive) | 4.62 µM (inactive) | – |
| O=C1C=C(O)c2nc(O)ccc2C1=O | > 100 µM (inactive) | > 100 µM (inactive) | > 100 µM (inactive) | > 100 µM (inactive) | 26.2 µM (inactive) | > 100 µM (inactive) | > 100 µM (inactive) | – | – | > 100 µM (inactive) | > 100 µM (inactive) | > 100 µM (inactive) | > 100 µM (inactive) | > 100 µM (inactive) | – | > 100 µM (inactive) | > 100 µM (inactive) | > 100 µM (inactive) | – |
| COc1ccc2c(c1)c1c(n2CCN2CCCCC2)-c2ccccc2CC1 | 14.6 µM (inactive) | 8.97 µM (inactive) | 17.2 µM (inactive) | 16.9 µM (inactive) | 16.6 µM (inactive) | 18.3 µM (inactive) | 11.8 µM (inactive) | 32.1 µM (inactive) | 13.6 µM (inactive) | 14.8 µM (inactive) | 14.4 µM (inactive) | 14.9 µM (inactive) | 17.4 µM (inactive) | 8.99 µM (inactive) | 16.4 µM (inactive) | – | 16.6 µM (inactive) | 16.4 µM (inactive) | – |
| Cc1ccc(C(=O)N/N=C(\N=N\c2cccc([N+](=O)[O-])c2)c2ccc(N(C)C)cc2)cc1 | 14.4 µM (inactive) | 37.2 µM (inactive) | – | > 100 µM (inactive) | 24.4 µM (inactive) | 34.6 µM (inactive) | 68.1 µM (inactive) | 16.6 µM (inactive) | > 100 µM (inactive) | 48.6 µM (inactive) | > 100 µM (inactive) | 97.1 µM (inactive) | > 100 µM (inactive) | 30.3 µM (inactive) | > 100 µM (inactive) | – | 54.5 µM (inactive) | > 100 µM (inactive) | 20.7 µM (inactive) |
| Nc1nc(Cl)cc(OCC2(CO)CC=CC2)n1 | > 100 µM (inactive) | > 100 µM (inactive) | > 100 µM (inactive) | > 100 µM (inactive) | > 100 µM (inactive) | > 100 µM (inactive) | – | > 100 µM (inactive) | > 100 µM (inactive) | > 100 µM (inactive) | 46.2 µM (inactive) | > 100 µM (inactive) | > 100 µM (inactive) | 95.7 µM (inactive) | – | 90.6 µM (inactive) | > 100 µM (inactive) | > 100 µM (inactive) | > 100 µM (inactive) |
| Cc1c(/C=N/NC(=S)Nc2cccc(Cl)c2)c(=O)n(-c2ccccc2)n1C | 31.3 µM (inactive) | – | 14.7 µM (inactive) | – | 16.4 µM (inactive) | – | 13 µM (inactive) | 24.1 µM (inactive) | 34.6 µM (inactive) | 10.4 µM (inactive) | 20.7 µM (inactive) | 14.1 µM (inactive) | 51.2 µM (inactive) | 13.8 µM (inactive) | 17.6 µM (inactive) | 3.14 µM (inactive) | 19.1 µM (inactive) | – | – |
| CC(=O)N[C@@H](Cc1ccc(O)cn1)C(=O)NCc1cccc(Cl)c1 | > 100 µM (inactive) | > 100 µM (inactive) | > 100 µM (inactive) | > 100 µM (inactive) | > 100 µM (inactive) | > 100 µM (inactive) | > 100 µM (inactive) | > 100 µM (inactive) | > 100 µM (inactive) | > 100 µM (inactive) | > 100 µM (inactive) | – | > 100 µM (inactive) | > 100 µM (inactive) | – | > 100 µM (inactive) | > 100 µM (inactive) | > 100 µM (inactive) | > 100 µM (inactive) |
| CCOC(=O)C1C=C1C(C)(C)O (stereo not given) | > 10 µM (inactive) | – | > 10 µM (inactive) | > 10 µM (inactive) | – | > 10 µM (inactive) | – | > 10 µM (inactive) | > 10 µM (inactive) | > 10 µM (inactive) | > 10 µM (inactive) | > 10 µM (inactive) | > 10 µM (inactive) | > 10 µM (inactive) | – | > 10 µM (inactive) | > 10 µM (inactive) | > 10 µM (inactive) | – |
| Cc1cc(NCC2CC/C(=C\C=C\c3ccccc3)C2=O)no1 (stereo not given) | 49.3 µM (inactive) | > 100 µM (inactive) | 93.8 µM (inactive) | > 100 µM (inactive) | > 100 µM (inactive) | > 100 µM (inactive) | > 100 µM (inactive) | > 100 µM (inactive) | > 100 µM (inactive) | 40.8 µM (inactive) | 40.2 µM (inactive) | > 100 µM (inactive) | > 100 µM (inactive) | 92.7 µM (inactive) | 98.4 µM (inactive) | 51.8 µM (inactive) | > 100 µM (inactive) | > 100 µM (inactive) | – |
| COc1cc2c(cc1OC)C13CCN4CC5=CCOC(CC(=O)O)C(C5CC41)C3N2 (stereo not given) | > 100 µM (inactive) | > 100 µM (inactive) | > 100 µM (inactive) | > 100 µM (inactive) | > 100 µM (inactive) | > 100 µM (inactive) | > 100 µM (inactive) | – | > 100 µM (inactive) | > 100 µM (inactive) | > 100 µM (inactive) | > 100 µM (inactive) | > 100 µM (inactive) | > 100 µM (inactive) | > 100 µM (inactive) | > 100 µM (inactive) | > 100 µM (inactive) | > 100 µM (inactive) | > 100 µM (inactive) |
| COc1cc(C2c3cc4c(cc3[C@@H](Nc3ccc(F)cc3)C3CO[C@@H](O)[C@H]23)OCO4)cc(OC)c1O (stereo not given in full) | 0.236 µM (active) | 3.16 µM (inactive) | 1.05 µM (active) | 5.12 µM (inactive) | 12.2 µM (inactive) | – | – | – | 3.61 µM (inactive) | 1.24 µM (inactive) | 1.69 µM (inactive) | 6.01 µM (inactive) | 8.38 µM (inactive) | 4.37 µM (inactive) | 3.48 µM (inactive) | – | 3.64 µM (inactive) | 0.853 µM (active) | 22.2 µM (inactive) |
| O=S1(=O)N=C(NCc2c[nH]c3ccccc23)N(c2ccccc2)c2ccncc21 | > 100 µM (inactive) | 25.1 µM (inactive) | > 100 µM (inactive) | 81.7 µM (inactive) | > 100 µM (inactive) | > 100 µM (inactive) | > 100 µM (inactive) | > 100 µM (inactive) | > 100 µM (inactive) | > 100 µM (inactive) | 49.4 µM (inactive) | 27.4 µM (inactive) | > 100 µM (inactive) | > 100 µM (inactive) | > 100 µM (inactive) | > 100 µM (inactive) | 34.9 µM (inactive) | > 100 µM (inactive) | – |
| COc1cc2c(c(O)c1O)C(=O)C1CCC(=O)N1C2c1cccc2ccccc12 (stereo not given) | > 50 µM (inactive) | > 50 µM (inactive) | > 50 µM (inactive) | > 50 µM (inactive) | > 50 µM (inactive) | > 50 µM (inactive) | – | > 50 µM (inactive) | > 50 µM (inactive) | > 50 µM (inactive) | > 50 µM (inactive) | > 50 µM (inactive) | > 50 µM (inactive) | > 50 µM (inactive) | – | > 50 µM (inactive) | > 50 µM (inactive) | 30.3 µM (inactive) | > 50 µM (inactive) |
